Patent US11566231B2, “Physiology and pathophysiology of human gut: intestine-on-chip” (EMULATE, INC., priority 2017, dated 2023)

What was measured:
[1] = test system: human PXR; conditions: human cells; cited from earlier work
[2] = test system: IL-8; test: LPS-induced IL-8 production in Intestine-Chip; format: cell-based, human; conditions: LPS 100 μg/ml; Rifaximin 50 μg/ml; without stretch

CO[C@H]1/C=C/O[C@@]2(C)Oc3c(C)c(O)c4c(O)c(c5c(nc6cc(C)ccn65)c4c3C2=O)NC(=O)/C(C)=C\C=C\[C@H](C)[C@H](O)[C@@H](C)[C@@H](O)[C@@H](C)[C@H](OC(C)=O)[C@@H]1C [Rifaximin]
expression of PXR-regulated genes, including CYP3A4 and MDR1 [1]: enhanced | IL-8 [2]: decrease in IL-8
